As a reminder, the IC50 is the concentration that inhibits the measured activity by half.

We go through five compounds from US12486229B2, “Indole derivative and application thereof” (SHANGHAI MEDICILON INC., priority 2020, dated 2025).

The target of one data set is T1, S1P1 (Homo sapiens, UniProt P21453).
T1 construct: host or cells: U2OS (human osteosarcoma) cell line, U2OS-EDG1
Briefly: S1P1 overexpression cell activity by β-arrestin assay (U2OS-EDG1). The class given is cell-based. The settings on record: U2OS-EDG1 cells. The protocol:
The following experiments were conducted to detect the activity of the compound on S1P1 overexpression cells by β-arrestin assay. [table] [table] 3. Experimental Steps Day 1: Cell Seeding Plate and Compound Treatment • (1) Firstly, the compound was diluted by a 4-fold gradient into 10 concentration points from the concentration of 10 μM in the culture plate by using NL fluid transfer system, with 2 replicates at each concentration point. • (2) Cells were resuspended by using FreeStyle™ expression medium, and the cell density was adjusted to 7,500 cells per 40 μL suspension. The samples with test concentration were added into the well of the cell culture plate, and 40 μL cell suspension was added into the corresponding well. • (3) The above cell plates were incubated overnight in a CO2 incubator with 5% (volume fraction) at 37° C. Day 2: Detection and Data Analysis • (1) The buffer solution was prepared according to the preparation method in the instructions of LiveBLAser™-fluorescence resonance energy transfer B/G loading kit. • (2) 8 μL detection reagent was added to each well, which were shaken and mixed evenly for 1 minute, centrifugated at 1,000 rpm for 10 seconds, and incubated at 23° C. in dark for 2 hours. • 3) Detection was performed by multimode reader. • 4) The PrismDemo software was used to analyze the data and fit the curve. 4. Experimental Results

For data set [1], the system named is TNBS induced ulcerative colitis in rats. Briefly: TNBS induced ulcerative colitis in rats. It is filed as in vivo, rat. Particulars: for Colon length / Colon weight / Colon weight/colon length / Ulcer area: day 8; for General anatomical view of colon, from excellent to poor: 7 days administration, SASP 360, Example 3 and Etrasimod 3, Ozanimod 10 mg/kg; for Drug efficacy intensity (colon weight): oral gavage for 7 consecutive days, doses as given in ranking. The protocol: Preparation of molding agent: 5 mL TNBS and 8.953 mL anhydrous ethanol and 26.741 sterilized water for injection. • TNBS comes from Dalian Meilun Biotechnology Co., Ltd. • Source of SPF male SD rats: Shanghai Slake Experimental Animal Co., Ltd. • Animal age at the beginning of the experiment: 8 to 10 weeks; • Animal weight at the beginning of the experiment: about 250 g; • Adaptation time: 5 to 7 days; • Animals were fasted (only water) for 24 hours. After inhalation anesthesia with isoflurane, all rats were perfused with 0.5 mL TNBS ethanol solution per rat (18 mg TNBS/rat) via rectum with latex hose, with the length of the hose entering the rectum of about 8 cm. After withdrawing the hose, the rats remained under isoflurane anesthesia, and kept in the inclined state of hip elevation for 15 minutes.
The rats after modeling were randomly divided into 5 groups: model group, positive control group using drug sulfasalazine (SASP, 360 mg/kg), test substance group using the compound of Example 3 (3 mg/kg), test substance group using Etrasimod (3 mg/kg), test substance group using Ozanimod (10 mg/kg).
At 3 hours after modeling, the animals in each group were administrated with medicine solution by oral gavage (Table 1), 5 mL/kg body weight (10 mL/kg in sulfasalazine group), once a day, for 7 consecutive days, and the feces of the animals and whether there is death were observed every day. On the 8th day, the animals were killed under CO2 overdose anesthesia followed by being dissected, the entire colon tissue was extracted, the contents of the colon were cleaned after longitudinal dissection along the mesenteric side, the colon was weighed and measured for its length, the area of the ulcer was measured, and the general situation was observed and photos were taken. Finally, the colon was fixed in 10% formalin, and H&E staining and histopathological analysis (inflammation, goblet cells, lesion depth, ulcer degree, crypt abscess) were performed.
Wherein, the compound of Example 3 of the invention, purity: 99.74%. • Etrasimod, prepared according to the literature method (the second isomer of Example 1.29 in WO2010/011316A1), purity: 98.47%. • Ozanimod, prepared according to the literature method (compound 86 in WO2011/060392A1), purity: 99.78%. • Sulfasalazine enteric-coated tablets, produced by Shanghai Fuda Pharmaceutical Co., Ltd., 0.25 g/tablet. Enteric coated tablets show yellow to brownish yellow after the coating is removed. • Solutol: Beijing Fengli Jingqiu Pharmaceutical Co., Ltd. • Solvent preparation: • DMSO, Solutol and 0.9% sodium chloride solution were mixed according to the volume ratio of 5:10:85 to prepare the solvent.
Preparation of compound of Example 3 and Etrasimod solution: 27 mg of test substances were taken respectively and dissolved in 45 mL of solvent to obtain corresponding test substance solution.
Ozanimod: 90 mg Ozanimod was dissolved in 45 mL solvent to obtain Ozanimod solution.
Preparation of SASP solution: six sulfasalazine enteric-coated tablets after grinding were added to 41.7 mL 0.5% CMC-Na, and then dissolved by ultrasonic to obtain SASP solution.
Due to the excipient factor of SASP drug preparation, the concentration should not be too high when suspended in 0.5% CMC-Na, otherwise the suspension was uneven and the mobility was poor, so the dose volume of SASP was doubled compared with the compound of Example 3 and Etrasimod.

Data set [2] deals with DSS induced ulcerative colitis in mice. Briefly: DSS induced ulcerative colitis in mice. The arrangement: key to Total stool scores: sum of shape (1-3) and bleeding (1-3) levels; normal = 1 each. Particulars: for Weight / Total stool scores: 20 mg/kg oral gavage once a day. It is filed as in vivo. The protocol:
Molecular weight of DSS dextran sodium sulfate: 36,000 to 50,000, From MP Biomedical Company.
Preparation of molding agent: preparation of 3.5% DSS: 49 g DSS plus 1,400 mL high-temperature sterilized water.
Source of SPF male C57BL/6 mice: Beijing Weitong Lihua Experimental Animal Technology Co., Ltd. • Animal age at the beginning of the experiment: 6 to 8 weeks; • Animal weight at the beginning of the experiment: 22 to 25 g; • Adaptation time: 3 to 5 days;
The mice were divided into groups according to their weight, 10 mice in each group. The mice were administrated once a day by gavage (or blank) according to the following Table 4.
Animals were given 3.5% DSS solution for free drinking water modeling (the day of modeling was recorded as day 1), and the modeling agent was replaced once every two days for 7 consecutive days, and then (day 8) 3.5% DSS was replaced with ordinary drinking water for another 1 day.
• Preparation of solvent 1: 0.66 mL DMSO, 1.32 mL Solutol and 11.22 mL Saline were mixed to prepare 13.2 mL of solvent 1; • Preparation of solvent 2: 0.3 mL DMSO, 0.6 mL Solutol and 5.1 mL Saline were mixed to prepare 6 mL of solvent 2; • Preparation of solution of compound of Example 3: 39.6 mg of compound of Example 3 was dissolved in 13.2 mL of solvent 1 to obtain the solution of compound 1 of Example 3, the solution 1 of compound of Example 3 was diluted with solvent 1 to prepare the solution of compound of Example 3 with concentrations of 2 mg/mL, 1 mg/mL, and 0.6 mg/mL; • Etrasimod solution: 6 mg of Etrasimod was dissolve in 6 mL of solvent 2 to obtain Etrasimod solution; • Ozanimod solution: 12 mg of […] was dissolved in 6 mL solvent 2 to obtain Ozanimod solution; • Note: Prepare once every two days, and store in refrigerator at 4° C.
Wherein, the purity of compound of Example 3 was 99.74%, Ozanimod and Etrasimod were prepared by the method described in Example 8, and the purities were 99.78% and 98.47% respectively.
The mouse stool was observed on its shape, bleeding condition every two days, and scored. Scoring criteria for stool condition: shape: normal (level 1), soft stool (level 2), and loose stool (level 3); traits: normal (level 1), faint redness (level 2), and bloody stool visible to the unaided eye (level 3).
After the last administration (8 consecutive days), the animals were dissected on the next day (day 9), the colon was separated, the whole colon was photographed, and the colon length was measured. Then the colon was cut longitudinally along the mesenteric side to remove the contents, which was weighed and observed on the integrity of the colonic mucosa. The colon was then fixed in 10% formalin.

[3] abbreviates: 10 mg/kg oral gavage once a day for 7 days.
Setting [4] is: 360 mg/kg oral gavage once a day for 7 days.

T1 sequence (P21453 whole entry): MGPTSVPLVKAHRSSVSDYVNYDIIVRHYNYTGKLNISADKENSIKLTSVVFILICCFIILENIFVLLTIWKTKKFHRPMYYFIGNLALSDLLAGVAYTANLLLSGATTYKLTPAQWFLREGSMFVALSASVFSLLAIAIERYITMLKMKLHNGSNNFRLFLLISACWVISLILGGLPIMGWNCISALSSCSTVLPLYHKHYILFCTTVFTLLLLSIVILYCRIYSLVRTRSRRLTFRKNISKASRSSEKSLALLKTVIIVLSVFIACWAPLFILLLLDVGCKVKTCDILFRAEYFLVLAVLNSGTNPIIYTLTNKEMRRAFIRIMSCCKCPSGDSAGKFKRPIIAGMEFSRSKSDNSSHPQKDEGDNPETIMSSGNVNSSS

For the compound `Cc1cc(OCc2ccc(C3CCCC3)c(C(F)(F)F)c2)cc2ccn(CCC(=O)O)c12` [Compound of Example 1, 3-(5-((4-cyclopentyl-3-(trifluoromethyl)benzyl)oxy)-7-methyl-1H-indole-1-yl)propionic acid], on S1P1, the IC50 was determined as 0.51 nM.
The same measure, in the same setting: then `CCc1cc(OCc2ccc(C3CCCC3)c(C(F)(F)F)c2)cc2ccn(CCC(=O)O)c12` [Compound of Example 2, 3-(5-((4-cyclopentyl-3-(trifluoromethyl)benzyl)oxy)-7-ethyl-1H-indole-1-yl)propionic acid], with 3.27 nM.
Same read-out and setting: then `Cc1cc(OCc2ccc(C3CCCC3)c(C(F)(F)F)c2)cc2ccn(CCCC(=O)O)c12` [Compound of Example 4, 4-(5-((4-cyclopentyl-3-(trifluoromethyl)benzyl)oxy)-7-methyl-1H-indole-1-yl)butyric acid], with 1.73 nM.
`CC(C)Oc1ccc(-c2nc(-c3cccc4c3CC[C@@H]4NCCO)no2)cc1C#N` [Ozanimod, reference compound] registered a Colon length in data set [1] (setting [3]) of 13.09 ± 0.5 cm. Besides, the Colon weight is on record as 3.30 ± 0.53 g in data set [1] (setting [3]) and 0.157 ± 0.01 g in data set [2] (20 mg/kg oral gavage once a day for 8 days, day 9). Moreover, the Colon weight/colon length in data set [1] (setting [3]) is given as 0.25 g/cm. The compound further gave a Ulcer area in data set [1] (setting [3]) of 498.04 ± 202.49 mm^2. Further, the “General anatomical view of colon, from excellent to poor” value in data set [1] is recorded as “group using compound of Example 3>group using sulfasalazine>group using Etrasimod>group using Ozanimod”. Besides, the Weight in data set [1] (Day 1, 10 mg/kg oral gavage once a day) was found to be 247.1 ± 0.64 g; in data set [1] (Day 2, 10 mg/kg oral gavage once a day) it was 225.6 ± 0.65 g; in data set [1] (Day 3, 10 mg/kg oral gavage once a day) it was 225.1 ± 0.86 g; in data set [1] (Day 4, 10 mg/kg oral gavage once a day) it was 225.9 ± 1.39 g; in data set [1] (Day 5, 10 mg/kg oral gavage once a day) it was 231.3 ± 1.63 g; in data set [1] (Day 6, 10 mg/kg oral gavage once a day), 239 ± 1.72 g. Also, the Weight in data set [1] (Day 7, 10 mg/kg oral gavage once a day) was 247.8 ± 1.74 g; in data set [1] (Day 8, 10 mg/kg oral gavage once a day) it was 262.8 ± 1.22 g; in data set [2] (Day 1), 21.2 ± 0.19 g; in data set [2] (Day 2) it was 21.7 ± 0.25 g; in data set [2] (Day 3), 21.7 ± 0.26 g; in data set [2] (Day 4) it was 21.9 ± 0.33 g. Moreover, the Weight was 21.5 ± 0.27 g in data set [2] (Day 5); 20.6 ± 0.54^ g in data set [2] (Day 6); 18.9 ± 0.54 g in data set [2] (Day 7); 18.0 ± 0.5 g in data set [2] (Day 8); 16.5 ± 0.49 g in data set [2] (Day 9). In addition, in data set [1], the “Drug efficacy intensity (colon weight)” value is listed as “group using the compound of Example 3 (3 mg/kg)>group using Etrasimod (3 mg/kg)>group using sulfasalazine (360 mg/kg)>model group>group using Ozanimod (10 mg/kg)”. The “Colon length compared with model group” value in data set [2] (20 mg/kg) is listed as “longer than that of the model group”. The “Effect on blood stool and loose stool compared with model group” value in data set [2] (20 mg/kg, day 9) is “had not significant improvement”. In addition, the Total stool scores in data set [2] (Day 7) was 5.9 ± 0.11; in data set [2] (Day 8) it was 6.0 ± 0; in data set [2] (Day 9), 5.1 ± 0. The “Number of dead animals” value in data set [2] (by the end of the test period, 10 mice per group, doses as Table 4 (Ozanimod 20 mg/kg)) is reported as 3.
`O=C(O)c1cc(/N=N/c2ccc(S(=O)(=O)Nc3ccccn3)cc2)ccc1O` [SASP, Sulfasalazine] displayed a Colon length in data set [1] (setting [4]) of 13.89 ± 0.45 cm. The compound also yielded a Colon weight in data set [1] (setting [4]) of 3.35 ± 0.74 g. This compound also returned a Colon weight/colon length in data set [1] (setting [4]) of 0.24 g/cm. This compound came in with a Ulcer area in data set [1] (setting [4]) of 320.23 ± 167.1 mm^2. The “General anatomical view of colon, from excellent to poor” value in data set [1] was “group using compound of Example 3>group using sulfasalazine>group using Etrasimod>group using Ozanimod”. Moreover, the Weight in data set [1] (Day 1, 360 mg/kg oral gavage once a day) is 250.1 ± 0.48 g; in data set [1] (Day 2, 360 mg/kg oral gavage once a day) it was 226.4 ± 0.34 g; in data set [1] (Day 3, 360 mg/kg oral gavage once a day), 227.6 ± 1.13 g; in data set [1] (Day 4, 360 mg/kg oral gavage once a day), 231.8 ± 1.59 g; in data set [1] (Day 5, 360 mg/kg oral gavage once a day), 238.6 ± 1.83 g; in data set [1] (Day 6, 360 mg/kg oral gavage once a day), 247.3 ± 1.91 g. The Weight in data set [1] (Day 7, 360 mg/kg oral gavage once a day) was determined as 255 ± 2.01 g; in data set [1] (Day 8, 360 mg/kg oral gavage once a day), 267.9 ± 1.9 g. For the same compound, in data set [1] (SASP 360 mg/kg, Example 3 and Etrasimod 3 mg/kg, oral once a day), the “Weight course compared with model group” value is “a certain tendency to inhibit the weight loss”. Moreover, the “Drug efficacy intensity (colon weight)” value in data set [1] was “group using the compound of Example 3 (3 mg/kg)>group using Etrasimod (3 mg/kg)>group using sulfasalazine (360 mg/kg)>model group>group using Ozanimod (10 mg/kg)”.
